Measurements as given in patent publication US11964943B2, “3,5-diarylidenyl-n-substituted-piperid-4-one-derived inhibitors of Stat3 pathway activity and uses thereof” (priority 2017, dated 2024).
Values after ≈ are worked out from the molar mass of the structure shown. Values joined by “and” are separate entries in the source; they are usually repeats but may differ in a detail not shown here. Identical values can stand only once. Like-named read-outs stand apart in the source and are kept apart here.

How the values were obtained:
[1] = test system: A2780-cisplatin resistant spheroids; assay: CellTiter-Glo 3D cell viability assay, A2780-cisplatin resistant spheroids; assay type: cell-based; details: 96 h exposure, 3D CellTiter-Glo
Method: For cell spheroid formation, HCT116-oxaliplatin resistant cells, A2780-cisplatin resistant cells, and HT1080 cells were seeded in Corning® Spheroid opaque-walled 96 well Microplates (ultra-low attachment; Nuclon™ Sphera™, Thermofisher) at densities of 2000 cells/well in 100 μl of cell solution and allowed to grow for 4 days, before any manipulation.
At the end of drug incubation, both the plates and the CellTitre-Glo® reagent (previously thawn overnight in the fridge) were equilibrated at room temperature for at least 30 min. Subsequently, 100 μl of cell solution were carefully removed from each well, without disrupting the spheroid and equal volume of CellTitre-Glo® reagent was added. Cell lysis was performed by vigorously shaking the plate for 5 min. To stabilize the luminescent signal, the plate was incubated in the dark at RT for another 30 min before luminescence was recorded on a plate reader. The cell viability of treated samples was normalised to the untreated controls.
The cytotoxicity studies in spheroids were conducted using the CellTiter-Glo® 3D Cell viability assay (Promega) following the instructions of the manufacturer.

[2] = test system: B16 (melanoma) cells; assay: MTT cytotoxicity assay, B16 cells
[3] = test system: L1210 (lymphoma) cells; assay: MTT cytotoxicity assay, L1210 cells
[4] = Aqueous solubility (MultiScreen Solubility Filter Plate, shake-flask based); details: aqueous buffer with 5% DMSO, pH 7.4, aqueous with cosolvent or surfactant or cyclodextrin, kinetic from dmso stock
Method: Aqueous solubility of Compounds of the Invention was measured with a modified version of the MultiScreen Solubility Filter Plate protocol (Millipore). This assay was based on the shake-flask equilibrium method and utilizes UV-Vis spectroscopy to quantify the unknown samples. The assay was conducted at room temperature at pH 7.4. […] Compound of the Invention was dissolved in DMSO, and the final DMSO concentration was 5% (v/v). Each sample was analyzed by UV-Vis spectroscopy at 10 nm increments from 260-600 nm to determine the optimal wavelength for detection and construct standard curves. […] A 4:1 mixture of supernatant to acetonitrile was added to a 96-well acrylic plate and analyzed by UV-Vis spectroscopy.
Aqueous solubility was measured with a modified version of the MultiScreen Solubility Filter Plate protocol (Millipore). This assay is based on the shake-flask equilibrium method and utilizes UV-Vis spectroscopy to quantify the unknown samples. The assay is conducted at room temperature at pH 7.4. […] Each compound was dissolved in DMSO, and the final DMSO concentration was 5% (v/v). Each sample was analyzed by UV-Vis spectroscopy at 10 nm increments from 260-600 nm to determine the optimal wavelength for detection and construct standard curves. […] A 4:1 mixture of supernatant to acetonitrile was added to a 96-well acrylic plate and analyzed by UV-Vis spectroscopy.

[5] = test system: MDA-MB-435 cancer cell line; assay: SRB antiproliferative assay, MDA-MB-435; assay type: cell-based, human; details: Homo sapiens, MDA-MB-435, 48 h exposure
[6] = Mus musculus, B16, 72 h, read-out: IC50 (μM) B16, 72 h exposure, MTT, mean of three independent experiments
[7] = Mus musculus, L1210, 72 h, read-out: IC50 (μM) L1210, 72 h exposure, MTT, mean of three independent experiments
[8] = read-out: IC50 (μM) B16, 72 h exposure, MTT, mean of three independent experiments
[9] = read-out: IC50 (μM) L1210, 72 h exposure, MTT, mean of three independent experiments

Row | SMILES | IC50 [2, 6] [µM] | IC50 [3, 7] [µM] | further results
1 | COc1cc(/C=C/C(=O)CC(=O)/C=C/c2ccc(O)c(OC)c2)ccc1O [Curcumin] | – | – | IC50 [1]: 37 ± 9.4 µM
2 | O=C1/C(=C/c2ccccc2)CNC/C1=C\c1ccccc1 [IA-1] | 5 ± 1 | 0.5 | IC50 (μM) B16 ([2]; 72 h exposure, MTT, mean of three independent experiments): _Ta
3 | Cc1ccc(/C=C2\CNC/C(=C\c3ccc(C)cc3)C2=O)cc1 [IA-2] | – | – | IC50 [2, 8]: 8 ± 4 µM; IC50 [3, 9]: 3.1 ± 0.1 µM
4 | O=C1/C(=C/c2ccc([N+](=O)[O-])cc2)CNC/C1=C\c1ccc([N+](=O)[O-])cc1 [IA-3] | 15 | 0.3 | –
5 | COc1ccc(/C=C2\CNC/C(=C\c3ccc(OC)cc3)C2=O)cc1 [IA-4] | 25 to 65 | – | IC50 ([2]; read-out: IC50 (μM) B16, 72 h exposure, MTT, mean of three independent experiments, listed as 4d): 43 µM; IC50 [3, 9]: 35 ± 8 µM
6 | COc1ccc(/C=C2\CNC/C(=C\c3ccc(OC)c(O)c3)C2=O)cc1O [IA-5] | 3 ± 1 | 0.9 ± 0.3 | –
7 | COc1cc(/C=C2\CNC/C(=C\c3ccc(O)c(OC)c3)C2=O)ccc1O [IA-6] | 1.3 ± 0.6 | 0.9 ± 0.4 | –
8 | COc1ccc(/C=C2\CNC/C(=C\c3ccc(OC)c(OC)c3)C2=O)cc1OC [IA-7] | 2.3 ± 0.5 | 0.6 ± 0.2 | –
9 | COc1cc(/C=C2\CNC/C(=C\c3cc(OC)c(OC)c(OC)c3)C2=O)cc(OC)c1OC [IA-8] | 0.3 | 0.32 | solubility at 6 h [4]: 70 ± 10 µM (≈ 31.9 µg/mL); IC50 [5]: 0.088 µM; IC50 ([3]; read-out: IC50 (μM) L1210, 72 h exposure, MTT, mean of three independent experiments, listed as 4h): ~0.3 µM
10 | CN1C/C(=C\c2ccccc2)C(=O)/C(=C/c2ccccc2)C1 [IB-1] | 5 ± 2 | 2.4 ± 0.3 | –
11 | Cc1ccc(/C=C2\CNC/C(=C\c3ccc(C)cc3)C2=O)cc1 [IB-2] | – | – | IC50 [2, 8]: 41 ± 6 µM; IC50 [3, 9]: 35 ± 5 µM
12 | CN1C/C(=C\c2ccc([N+](=O)[O-])cc2)C(=O)/C(=C/c2ccc([N+](=O)[O-])cc2)C1 [IB-3] | – | 1.3 | IC50 [2, 8]: 41 ± 2 µM; IC50 ([2]; read-out: IC50 (μM) B16, 72 h exposure, MTT, mean of three independent experiments, listed as 5c): 4 µM
13 | COc1ccc(/C=C2\CN(C)C/C(=C\c3ccc(OC)cc3)C2=O)cc1 [IB-4] | 23 | 62 | –
14 | COc1ccc(/C=C2\CN(C)C/C(=C\c3ccc(OC)c(O)c3)C2=O)cc1O [IB-5] | 1.3 to 2.1 | 0.8 to 1.9 | IC50 [2, 8]: 2.1 ± 0.1 µM; IC50 [3, 9]: 0.8 ± 0.4 µM
15 | COc1cc(/C=C2\CN(C)C/C(=C\c3ccc(O)c(OC)c3)C2=O)ccc1O [IB-6] | 1.3 to 2.1 | – | IC50 [2, 8]: 1.8 ± 0.3 µM; IC50 [3, 9]: 1.9 ± 0.4 µM
16 | COc1ccc(/C=C2\CN(C)C/C(=C\c3ccc(OC)c(OC)c3)C2=O)cc1OC [IB-7] | 1.3 to 2.1 | 0.8 to 1.9 | IC50 [2, 8]: 1.3 ± 0.1 µM; IC50 [3, 9]: 1 ± 0.6 µM
17 | COc1cc(/C=C2\CN(C)C/C(=C\c3cc(OC)c(OC)c(OC)c3)C2=O)cc(OC)c1OC [IB-8] | 0.31 | 0.37 | IC50 ([2]; read-out: IC50 (μM) B16, 72 h exposure, MTT, mean of three independent experiments, listed as 5 h): ~0.3 µM; solubility at 6 h [4]: 160 ± 30 µM (≈ 75.1 µg/mL); IC50 [5]: 0.19 µM; IC50 ([3]; read-out: IC50 (μM) L1210, 72 h exposure, MTT, mean of three independent experiments, listed as 5 h): ~0.3 µM
18 | Cc1ccc(/C=C2\CN(C(C)C)C/C(=C\c3ccc(C)cc3)C2=O)cc1 [IC-2] | 4 ± 2 | 2.5 ± 0.7 | –
19 | CC(C)N1C/C(=C\c2ccc([N+](=O)[O-])cc2)C(=O)/C(=C/c2ccc([N+](=O)[O-])cc2)C1 [IC-3] | 3.7 ± 0.6 | 0.9 ± 0.6 | –

Row | SMILES | IC50 [2, 6] [µM] | IC50 [3, 7] [µM] | further results
20 | COc1ccc(/C=C2\CN(C(C)C)C/C(=C\c3ccc(OC)c(O)c3)C2=O)cc1O [IC-5, 3,5-Di(3-hydroxy-4-methoxylbenzyliden)-1-isopropylpiperidin-4-one] | 1.1 | 0.4 | melting point: 165 to 168 °C
21 | COc1cc(/C=C2\CN(C(C)C)C/C(=C\c3ccc(O)c(OC)c3)C2=O)ccc1O [IC-6] | 2.2 ± 0.2 | 2.2 ± 0.2 | –
22 | COc1cc(/C=C2\CN(C(C)C)C/C(=C\c3cc(OC)c(OC)c(OC)c3)C2=O)cc(OC)c1OC [IC-8] | 25 to 65 | 25 to 65 | IC50 ([2]; read-out: IC50 (μM) B16, 72 h exposure, MTT, mean of three independent experiments, listed as 6h): 25.6 µM; IC50 ([3]; read-out: IC50 (μM) L1210, 72 h exposure, MTT, mean of three independent experiments, listed as 6h): 47 µM and 47.1 µM
23 | O=C1/C(=C/c2ccccc2)CN(Cc2ccccc2)C/C1=C\c1ccccc1 [ID-1] | 3.1 ± 0.1 | 3.4 ± 0.5 | –
24 | Cc1ccc(/C=C2\CN(Cc3ccccc3)C/C(=C\c3ccc(C)cc3)C2=O)cc1 [ID-2] | 14 | 9 | –
25 | O=C1/C(=C/c2ccc([N+](=O)[O-])cc2)CN(Cc2ccccc2)C/C1=C\c1ccc([N+](=O)[O-])cc1 [ID-3] | 2.5 ± 0.7 | 2 ± 1 | –
26 | COc1ccc(/C=C2\CN(Cc3ccccc3)C/C(=C\c3ccc(OC)cc3)C2=O)cc1 [ID-4] | 27 | 8 | –
27 | COc1ccc(/C=C2\CN(Cc3ccccc3)C/C(=C\c3ccc(OC)c(O)c3)C2=O)cc1O [ID-5] | 2.4 ± 0.5 | 3.1 ± 0.1 | –
28 | COc1cc(/C=C2\CN(Cc3ccccc3)C/C(=C\c3ccc(O)c(OC)c3)C2=O)ccc1O [ID-6] | 2 ± 0.5 | 2.8 ± 0.4 | –
29 | COc1ccc(/C=C2\CN(Cc3ccccc3)C/C(=C\c3ccc(OC)c(OC)c3)C2=O)cc1OC [ID-7] | 2 ± 0.4 | 3.3 ± 0.1 | IC50 ([2]; read-out: IC50 (μM) B16, 72 h exposure, MTT, mean of three independent experiments, listed as 7g): 2.5 ± 0.4 µM
30 | COc1cc(/C=C2\CN(Cc3ccccc3)C/C(=C\c3cc(OC)c(OC)c(OC)c3)C2=O)cc(OC)c1OC [ID-8] | 2.4 | 3.6 | solubility at 6 h [4]: 210 ± 20 µM (≈ 115 µg/mL); IC50 [5]: 0.76 µM
31 | O=C1/C(=C/c2ccccc2)CN(c2ccccc2)C/C1=C\c1ccccc1 [IE-1] | 7 | 4 ± 2 | –
32 | Cc1ccc(/C=C2\CN(c3ccccc3)C/C(=C\c3ccc(C)cc3)C2=O)cc1 [IE-2, 3,5-Di(4-methylbenzylidene)-1-phenylpiperidin-4-one] | > 100 | > 100 | melting point: 173 to 176 °C
33 | O=C1/C(=C/c2ccc([N+](=O)[O-])cc2)CN(c2ccccc2)C/C1=C\c1ccc([N+](=O)[O-])cc1 [IE-3, 3,5-Di(4-nitrobenzylidene)-1-phenylpiperidin-4-one] | – | – | IC50 [2, 8]: 65 ± 7 µM; melting point: 184 to 188 °C; IC50 [3, 9]: 65 ± 7 µM
34 | COc1ccc(/C=C2\CN(c3ccccc3)C/C(=C\c3ccc(OC)cc3)C2=O)cc1 [IE-4, 3,5-Di(4-methoxybenzylidene)-1-phenylpiperidin-4-one] | 25 to 65 | – | IC50 [2, 8]: 37 ± 6 µM; melting point: 152 to 155 °C; IC50 [3, 9]: 55 ± 7 µM
35 | COc1ccc(/C=C2\CN(c3ccccc3)C/C(=C\c3ccc(OC)c(O)c3)C2=O)cc1O [IE-5, 3,5-Di(3-hydroxy-4-methoxybenzylidene)-1-phenylpiperidin-4-one] | 19 | 6 | melting point: 142 to 146 °C
36 | COc1cc(/C=C2\CN(c3ccccc3)C/C(=C\c3ccc(O)c(OC)c3)C2=O)ccc1O [IE-6, 3,5-Di(4-hydroxy-3-methoxybenzylidene)-1-phenylpiperidin-4-one] | 2.9 ± 0.4 | 2.8 ± 0.4 | melting point: 139 to 143 °C
37 | COc1ccc(/C=C2\CN(c3ccccc3)C/C(=C\c3ccc(OC)c(OC)c3)C2=O)cc1OC [IE-7, 3,5-Di(3,4-dimethoxybenzylidene)-1-phenylpiperidin-4-one] | 1.3 ± 0.1 | 2.9 ± 0.9 | melting point: 144 to 148 °C
